No end group written: not given here.
Assays:
SARS-COV-2 RBD = SARS-COV-2 RBD (Severe acute respiratory syndrome coronavirus 2, UniProt P0DTC2); assay: biochemical; assay type: binding
[1] = molecular target: SARS-COV-2 RBD protein with His-tag, purified by recombinant expression in Pichia pastoris (SARS-COV-2), P0DTC2; assay: SPR at 25 C; His-tagged RBD captured by anti-His tag, peptide flowed over

Molecule | Kd (SARS-COV-2 RBD) [pM] | Kd [1] [pM]
EENAKTFLNNFNQEAEDLSYQSSLASWNYNT [peptide4] | 1.26 to 8.16 | 
QEQAQTYLDGYNKTYQDLVYKDNLAQWTLNT [peptide2] | 3.55 to 4.09 | 
EENAKTFLNNFNQEAEDLSYQSSLASWNYNT (modifications not checked) [peptide4 (BAB40431.1:22-52 angiotensin-converting enzyme-related carboxypeptidase [Mus musculus])] |  | 1.26 to 8.16
QEQAQTYLDGYNKTYQDLVYKDNLAQWTLNT (modifications not checked) [peptide2 (WP_072363071.1:30-60 M2 family metallopeptidase [Chitinophaga sancti])] |  | 3.55 to 4.09
